Measurements: publication PMC8571713 (Experimental neurology, 2021)

Assays:
[1] = target: T1, dSARM1 ARM (Drosophila SARM1 ARM domain) (Drosophila melanogaster, UniProt Q6IDD9); assay: crystal structure; format: binding
T1 sequence (Q6IDD9 315-678): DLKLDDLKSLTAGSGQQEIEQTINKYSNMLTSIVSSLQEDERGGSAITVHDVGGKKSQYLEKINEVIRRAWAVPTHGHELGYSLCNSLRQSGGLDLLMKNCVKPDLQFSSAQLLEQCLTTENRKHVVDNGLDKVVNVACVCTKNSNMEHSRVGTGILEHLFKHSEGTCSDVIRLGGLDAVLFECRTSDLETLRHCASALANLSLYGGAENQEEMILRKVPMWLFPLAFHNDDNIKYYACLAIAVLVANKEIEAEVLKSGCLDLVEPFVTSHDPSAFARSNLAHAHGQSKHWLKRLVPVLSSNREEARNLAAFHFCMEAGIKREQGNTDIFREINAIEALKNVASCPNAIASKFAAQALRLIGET

[2] = target: T2, hSARM1 (human SARM1) (Homo sapiens, UniProt Q6SZW1); assay: STD NMR with NMN competition; format: biochemical
T2 sequence (Q6SZW1 28-724): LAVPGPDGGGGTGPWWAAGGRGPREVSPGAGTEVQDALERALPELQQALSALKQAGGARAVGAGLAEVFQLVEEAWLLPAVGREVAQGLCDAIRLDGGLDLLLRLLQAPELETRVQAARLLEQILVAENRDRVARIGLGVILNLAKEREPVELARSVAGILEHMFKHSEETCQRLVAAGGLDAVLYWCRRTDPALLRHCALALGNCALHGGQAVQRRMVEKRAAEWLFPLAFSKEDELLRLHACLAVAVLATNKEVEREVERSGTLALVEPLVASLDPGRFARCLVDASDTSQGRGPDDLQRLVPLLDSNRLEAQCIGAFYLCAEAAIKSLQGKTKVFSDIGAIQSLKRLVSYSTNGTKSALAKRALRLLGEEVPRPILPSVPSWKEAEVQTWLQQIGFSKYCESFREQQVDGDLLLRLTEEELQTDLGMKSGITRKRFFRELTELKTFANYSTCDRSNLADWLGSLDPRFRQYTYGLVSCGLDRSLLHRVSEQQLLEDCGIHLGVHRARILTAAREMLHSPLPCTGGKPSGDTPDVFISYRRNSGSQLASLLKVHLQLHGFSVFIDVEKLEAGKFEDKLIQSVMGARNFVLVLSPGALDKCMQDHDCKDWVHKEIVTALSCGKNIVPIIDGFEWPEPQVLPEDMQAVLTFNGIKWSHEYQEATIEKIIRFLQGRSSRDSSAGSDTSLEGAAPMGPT

O=C([O-])c1ccc[n+]([C@@H]2O[C@H](COP(=O)(O)O)[C@@H](O)[C@H]2O)c1 [NaMN, nicotinic acid mononucleotide]
crystal structure (3.31 Å, soaking with 20 mM NaMN); STD NMR [1]: we determined the crystal structure of the NaMN-bound ARM domain of Drosophila SARM1 (dSARM1ARM) (PDB: 7RTC | IC50 [2]: 93.3 µM
